# Molecular target: immobilized CRBN protein (cereblon) (Homo sapiens (Human), UniProt Q96SW2)
# Assay: Surface plasmon resonance (SPR) KD determination on immobilized cereblon
# Conditions: average of at least N=2, 1:1 fit, read-out: KD Binding to immobilized CRBN protein in SPR assay
# Procedure: The surface plasmon resonance (SPR) experiments were conducted on a Biacore3000 (GE Healthcare). Myc-tagged cereblon was immobilized on a carboxymethylated dextran surface (CM5) amine coupled to anti-Myc antibody to recognize the Myc tag. His-tagged cereblon protein was immobilized on a carboxymethylated dextran surface with nitriloacetic acid (NTA), taking advantage of NTA/Ni^2+ chelation. The prepared surface was allowed to equilibrate over three hours in running buffer (10 mM HEPES buffer @pH 7.4, 150 mM NaCl, 0.005% P20,2% DMSO).
# All compounds were prepared in 100% DMSO stock plates with a top concentration of 5 mM in a 3× serial dilution. Compounds were transferred from the stock plate to the assay plate and diluted into running buffer containing no DMSO. All compounds were run as a six-concentration series with a final assay top concentration of 100 μM.
# Data analysis was performed in Scrubber 2 (BioLogic software, Campbell, Australia). Blanks were subtracted and data was corrected for DMSO against a standard DMSO curve.
# immobilized CRBN protein (cereblon), sequence (Q96SW2 whole entry): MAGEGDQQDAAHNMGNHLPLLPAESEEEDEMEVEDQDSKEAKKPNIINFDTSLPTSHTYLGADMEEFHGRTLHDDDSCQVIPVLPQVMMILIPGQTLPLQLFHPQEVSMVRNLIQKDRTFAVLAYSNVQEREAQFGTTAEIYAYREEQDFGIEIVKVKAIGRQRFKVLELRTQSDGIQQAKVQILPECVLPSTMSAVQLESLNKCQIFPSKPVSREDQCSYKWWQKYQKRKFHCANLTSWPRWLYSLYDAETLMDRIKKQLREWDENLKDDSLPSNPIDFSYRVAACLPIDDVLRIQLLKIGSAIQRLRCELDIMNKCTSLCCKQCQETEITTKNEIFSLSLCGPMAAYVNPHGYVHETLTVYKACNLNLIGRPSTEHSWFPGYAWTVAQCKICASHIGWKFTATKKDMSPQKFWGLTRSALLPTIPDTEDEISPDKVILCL
row,Kd [µM],Structure (SMILES)
1,> 100,O=C1CCC(N2Cc3ccccc3C2=O)C2(COC2)N1 (centres unmarked) [compound 20]
2,> 100,Cn1cc(N2C(=O)c3ccccc3C2=O)c(=O)[nH]c1=O [compound 21]
3,10 to 100,N#Cc1cn(-c2cnc3ccccc3c2)c(=O)[nH]c1=O [compound 23]
4,> 100,O=C1NC(=O)C(N2C(=O)c3cccc(F)c3C2=O)N1 (centres unmarked) [compound 24]
5,> 100,O=C1NCC(N2C(=O)c3ccccc3C2=O)C(=O)N1 (centres unmarked) [compound 25]
6,> 100,O=C1c2ccccc2C(=O)N1c1c[nH]c(=O)[nH]c1=O [compound 26]
7,1 to 10,CCOc1cnn(C2CCC(=O)NC2=O)c(=O)c1 (centres unmarked) [compound 30]
8,> 100,CCOc1ccn(C2CCC(=O)NC2=O)c(=O)c1 (centres unmarked) [compound 31]
9,10 to 100,O=c1ccn(-c2cncc3ccccc23)c(=O)[nH]1 [compound 34]
10,> 100,Cc1ccncc1-n1cc(C#N)c(=O)[nH]c1=O [compound 36]
11,> 100,O=c1ccn([C@H]2C[C@H](O)[C@@H](CO)O2)c(=O)[nH]1 [compound 37]
12,> 100,N#Cc1cn(-c2cccnc2)c(=O)[nH]c1=O [compound 38]
13,10 to 100,O=c1ccn(-c2cccnc2)c(=O)[nH]1 [compound 40]
14,10 to 100,N#Cc1ccc(N2C(=O)c3ccccc3C2=O)c(=O)[nH]1 [compound 44]

# More lines, now with the values behind:
row,Structure (SMILES),Kd [µM]
1,CN1CC(N2C(=O)c3ccccc3C2=O)C(=O)NC1=O (centres unmarked) [compound 18],> 100
2,O=CN1CCC(N2C(=O)c3ccccc3C2=O)C(=O)N1 (centres unmarked) [compound 19],> 100
3,CC1(C)C(=O)NC(=O)N1C1CC2CCCCN2C1=O (centres unmarked) [compound 22],> 100
4,Cc1c(N2CCC(=O)NC2=O)cnc2ccccc12 [compound 27],> 100
5,Cc1c(-n2ccc(=O)[nH]c2=O)cnc2ccccc12 [compound 28],10 to 100
6,CCOc1cc(=O)n(C2CCC(=O)NC2=O)cn1 (centres unmarked) [compound 29],10 to 100
7,O=C1CCN(c2cncc3ccccc23)C(=O)N1 [compound 32],1 to 10
8,O=c1ccn(-c2cnc3ccccc3c2)c(=O)[nH]1 [compound 33],> 100
9,O=C1CN(C2Cc3ccccc3C2=O)C(=O)N1 (centres unmarked) [compound 35],> 100
10,Cc1cn(-c2cccnc2)c(=O)[nH]c1=O [compound 39],> 100
11,Cc1cc(C(N)=O)[nH]c(=O)c1N1C(=O)c2ccccc2C1=O [compound 41],> 100
12,NC(=O)c1ccc(N2C(=O)c3ccccc3C2=O)c(=O)[nH]1 [compound 42],> 100
13,Cc1cc(C#N)[nH]c(=O)c1N1C(=O)c2ccccc2C1=O [compound 43],10 to 100

# Molecular target: T1, Estrogen receptor-alpha (ERα) (Homo sapiens (Human), UniProt P03372)
# T1 sequence (P03372 whole entry): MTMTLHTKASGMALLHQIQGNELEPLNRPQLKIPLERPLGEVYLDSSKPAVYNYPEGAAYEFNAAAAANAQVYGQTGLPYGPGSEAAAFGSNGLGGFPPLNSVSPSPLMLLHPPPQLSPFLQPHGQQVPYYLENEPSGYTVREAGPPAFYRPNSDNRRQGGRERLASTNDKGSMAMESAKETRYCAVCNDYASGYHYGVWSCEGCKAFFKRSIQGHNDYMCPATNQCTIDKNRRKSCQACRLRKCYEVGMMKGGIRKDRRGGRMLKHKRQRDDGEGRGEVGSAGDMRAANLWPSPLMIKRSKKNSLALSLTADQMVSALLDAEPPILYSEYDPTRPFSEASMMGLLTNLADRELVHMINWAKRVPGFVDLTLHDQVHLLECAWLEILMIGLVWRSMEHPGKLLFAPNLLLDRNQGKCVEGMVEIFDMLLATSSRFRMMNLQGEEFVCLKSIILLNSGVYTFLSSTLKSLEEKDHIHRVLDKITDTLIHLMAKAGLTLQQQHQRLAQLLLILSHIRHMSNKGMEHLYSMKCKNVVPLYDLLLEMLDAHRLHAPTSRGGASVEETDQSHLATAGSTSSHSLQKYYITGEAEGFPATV
# Assay: ERα degradation assay using In-Cell Western in MCF7 cells
# Type: cell-based
# Conditions: 3 day incubation, read-out: ER degradation DC50
# Procedure: 3. Estrogen Receptor-Alpha (ERα) Degradation Assay Using in-Cell Western™ Assay for Table 5.
# Degradation of ERα by claimed compounds were determined in MCF7 cells using an In-Cell Western™ assay. Briefly, MCF7 cells were plated in 96-well plates (2000 cells per well in 100 μl media) and incubated at 37° C. under an atmosphere of 5% CO2 in a humidified incubator overnight. One-hundred (100) μl of media containing test compound (at 2× concentration) was added to the appropriate wells to provide 11 serially decreasing concentrations (top final concentration, 1 μM then 3-fold less for the next 10 concentrations); a vehicle control (DMSO) was also added for each compound. For each experiment, all compounds were assayed in duplicate plates. Cells were then incubated for 3 or 5 days in the above-mentioned environment. The assay was terminated by removal of media, a single wash with ice-cold PBS and the addition of 50 μl paraformaldehyde (PFA: 4% in PBS). After 15 minutes in PFA at room temperature, the cells were permeabilized in Tris-phosphate-buffered saline with Tween (0.1%) (TBST) supplemented with Triton X-100 (0.5%) for 15 minutes. Cells were then blocked in BSA (TBST with BSA, 3%) for one hour. […] The cells were incubated overnight at 4° C. The cells were then washed thrice with TBST at room temperature and then incubated with anti-rabbit and anti-mouse fluorescently-labelled secondary antibodies (IRDye®; LI-COR; Lincoln, NE) in LI-COR blocking buffer (Catalog #927-50000) for one hour at room temperature. Following 3 washes with TBST, the buffer was removed and the plates were read on an Odyssey® infrared imaging system (LI-COR®; Lincoln, NE) at 700 nm and 800 nm. Using commercial software (ImageStudio™; LI-COR, Lincoln, NE), the staining intensity for ERα and tubulin in each well was quantified and exported for analysis. For each data point, ERα intensity was normalized to tubulin intensity and for each compound all normalized intensity values were normalized to the vehicle control. DC50 and Dmax values were determined following a 4-parameter IC50 curve fit using ACAS dose response module (McNeil & Co Inc.).
row,DC50 [µM],Structure (SMILES)
1,≥ 0.1,"Cc1nc2c(NCCN3CCN(CCOc4ccc(Oc5c(-c6ccc(Br)cc6)sc6cc(O)ccc56)cc4)CC3)cccc2c(=O)n1C1CCC(=O)NC1=O (centres unmarked) [PROTAC-107, 3-(8-((2-(4-(2-(4-((2-(4-bromophenyl)-6-hydroxybenzo[b]thiophen-3-yl)oxy)phenoxy)ethyl)piperazin-1-yl)ethyl)amino)-2-methyl-4-oxoquinazolin-3(4H)-yl)piperidine-2,6-dione]"
2,≥ 0.1,"Cc1nc2c(OCCN3CCN(CCOc4ccc(Oc5c(-c6ccc(Br)cc6)sc6cc(O)ccc56)cc4)CC3)cccc2c(=O)n1C1CCC(=O)NC1=O (centres unmarked) [PROTAC-108, 3-(8-(2-(4-(2-(4-((2-(4-bromophenyl)-6-hydroxybenzo[b]thiophen-3-yl)oxy)phenoxy)ethyl)piperazin-1-yl)ethoxy)-2-methyl-4-oxoquinazolin-3(4H)-yl)piperidine-2,6-dione]"

# Same assay, conditions: 5 day incubation, read-out: ER degradation DC50
row,DC50 [µM],Structure (SMILES)
1,0.001 to 0.01,"CN(C(=O)c1ccc(N2CCN(CCCCCOc3ccc([C@@H]4c5ccc(O)cc5CC[C@@H]4c4ccccc4)cc3)CC2)cc1)C1CCC(=O)NC1=O (mixture of isomers) [PROTAC-90, rac-N-(2,6-dioxopiperidin-3-yl)-4-(4-(5-(4-((1R,2S)-6-hydroxy-2-phenyl-1,2,3,4-tetrahydronaphthalen-1-yl)phenoxy)pentyl)piperazin-1-yl)-N-methylbenzamide]"
2,0.001 to 0.01,"O=C1CCC(NC(=O)c2ccc(N3CCN(CCCCCOc4ccc([C@@H]5c6ccc(O)cc6CC[C@@H]5c5ccccc5)cc4)CC3)cn2)C(=O)N1 (mixture of isomers) [PROTAC-91, rac-N-(2,6-dioxopiperidin-3-yl)-5-(4-(5-(4-((1R,2S)-6-hydroxy-2-phenyl-1,2,3,4-tetrahydronaphthalen-1-yl)phenoxy)pentyl)piperazin-1-yl)picolinamide]"
3,0.001 to 0.01,"O=C1CCC(n2ncc(N3CCN(CCCCCOc4ccc([C@@H]5c6ccc(O)cc6CC[C@@H]5c5ccccc5)cc4)CC3)cc2=O)C(=O)N1 (mixture of isomers) [PROTAC-100, rac-3-(4-(4-(5-(4-((1R,2S)-6-hydroxy-2-phenyl-1,2,3,4-tetrahydronaphthalen-1-yl)phenoxy)pentyl)piperazin-1-yl)-6-oxopyridazin-1(6H)-yl)piperidine-2,6-dione]"
4,0.001 to 0.01,"O=C1CCC(n2cnc(N3CCN(CCCCCOc4ccc([C@@H]5c6ccc(O)cc6CC[C@@H]5c5ccccc5)cc4)CC3)cc2=O)C(=O)N1 (mixture of isomers) [PROTAC-101, rac-3-(4-(4-(5-(4-((1R,2S)-6-hydroxy-2-phenyl-1,2,3,4-tetrahydronaphthalen-1-yl)phenoxy)pentyl)piperazin-1-yl)-6-oxopyrimidin-1(6H)-yl)piperidine-2,6-dione]"
5,< 0.001,"O=C1CCC(n2cc(-c3ccc(N4CCN(CCCOc5ccc([C@@H]6c7ccc(O)cc7CC[C@@H]6c6ccccc6)cc5)CC4)cc3)cn2)C(=O)N1 (mixture of isomers) [PROTAC-110, rac-3-(4-(4-(4-(3-(4-((1R,2S)-6-hydroxy-2-phenyl-1,2,3,4-tetrahydronaphthalen-1-yl)phenoxy)propyl)piperazin-1-yl)phenyl)-1H-pyrazol-1-yl)piperidine-2,6-dione]"
6,0.001 to 0.01,"O=C1CCC(N2CC(c3ccc(N4CCN(CC5CCN(c6ccc([C@@H]7c8ccc(O)cc8CC[C@@H]7c7ccccc7)cc6)CC5)CC4)cc3)=CC2=O)C(=O)N1 (stereo partly drawn) [PROTAC-89, 3-[3-[4-[4-[[1-[4-[(1R,2S)-6-hydroxy-2-phenyl-tetralin-1-yl]phenyl]-4-piperidyl]methyl]piperazin-1-yl]phenyl]-5-oxo-2H-pyrrol-1-yl]piperidine-2,6-dione]"
7,0.001 to 0.01,"O=C1CCC(n2ncc(N3CCN(CC4CCN(c5ccc([C@@H]6c7ccc(O)cc7CC[C@@H]6c6ccccc6)cc5)CC4)CC3)cc2=O)C(=O)N1 (stereo partly drawn) [PROTAC-102, 3-[4-[4-[[1-[4-[(1R,2S)-6-hydroxy-2-phenyl-tetralin-1-yl]phenyl]-4-piperidyl]methyl]piperazin-1-yl]-6-oxo-pyridazin-1-yl]piperidine-2,6-dione]"

# Molecular target: T1, Estrogen receptor-alpha (ERα)
# Assay: ERα degradation assay in T47D cells
# Type: cell-based
# Conditions: 5 day incubation, read-out: ER degradation DC50
row,DC50 [µM],Structure (SMILES)
1,≥ 0.1,"CCN(C(=O)c1ccc(N2CCN(CCCCCOc3ccc([C@@H]4c5ccc(O)cc5CC[C@@H]4c4ccccc4)cc3)CC2)cc1OC)C1CCC(=O)NC1=O (mixture of isomers) [PROTAC-92, rac-N-(2,6-dioxopiperidin-3-yl)-N-ethyl-4-(4-(5-(4-((1R,2S)-6-hydroxy-2-phenyl-1,2,3,4-tetrahydronaphthalen-1-yl)phenoxy)pentyl)piperazin-1-yl)-2-methoxybenzamide]"
2,≥ 0.1,"O=C1CCC(N2CC(Oc3cccc(C4CCN(CCCCOc5ccc([C@@H]6c7ccc(O)cc7CC[C@@H]6c6ccccc6)cc5)CC4)c3)=CC2=O)C(=O)N1 (mixture of isomers) [PROTAC-104, rac-3-(4-(3-(1-(4-(4-((1R,2S)-6-hydroxy-2-phenyl-1,2,3,4-tetrahydronaphthalen-1-yl)phenoxy)butyl)piperidin-4-yl)phenoxy)-2-oxo-2,5-dihydro-1H-pyrrol-1-yl)piperidine-2,6-dione]"

# Source: patent US20250313547A1, “CEREBLON LIGANDS AND BIFUNCTIONAL COMPOUNDS COMPRISING THE SAME” (Arvinas Operations, Inc., priority 2017, published 2025)
